“And” between values parts separate entries of the source, which are not always exact repeats. Identical values can stand only once. Like-named read-outs stand apart in the source and are kept apart here.
Settings: rat; for Faeces Excretion, Amount Excreted (% of Dose), 8 hours / Urinary Excretion, Amount Excreted (% of Dose), 8 hours: collection 0-8 hours; for Faeces Excretion, Amount Excreted (% of Dose), 72 hours / Urinary Excretion, Amount Excreted (% of Dose), 72 hours: collection 48-72 hours; for Faeces Excretion, Amount Excreted (% of Dose), 96 hours / Urinary Excretion, Amount Excreted (% of Dose), 96 hours: collection 72-96 hours; for Faeces Excretion, Amount Excreted (% of Dose), 120 hours / Urinary Excretion, Amount Excreted (% of Dose), 120 hours: collection 96-120 hours; for Faeces Excretion, Amount Excreted (% of Dose), 144 hours / Urinary Excretion, Amount Excreted (% of Dose), 144 hours: collection 120-144 hours; for Faeces Excretion, Amount Excreted (% of Dose), 168 hours / Urinary Excretion, Amount Excreted (% of Dose), 168 hours: collection 144-168 hours; for Recovery from Treated Skin, % of Dose: dermal (Group 2)
[1] = dermal 1.9 mg (Group 2), individual animals
[2] = dermal 1.9 mg (Group 2), collection 8-24 hours, individual animals
[3] = dermal 1.9 mg (Group 2), collection 24-48 hours, individual animals
[4] = dermal 1.9 mg (Group 2), necropsy Day 4, Mean
[5] = dermal 1.9 mg (Group 2), necropsy Day 4, individual animals
[6] = dermal 1.9 mg (Group 2), necropsy Day 8, Mean
[7] = dermal 1.9 mg (Group 2), necropsy Day 8, individual animals

NCCCC(O)(P(=O)(O)O)P(=O)(O)O [14C-alendronate]
Faeces Excretion, Total Excretion (% of Dose), 0-168 hours (dermal 1.9 mg (Group 2), Mean): approximately 2 % of Dose
Urinary Excretion, Total Excretion (% of Dose), 0-72 hours (dermal 1.9 mg (Group 2), Mean): 0.40% of Dose
Faeces Excretion, Amount Excreted (% of Dose), 8 hours (dermal 1.9 mg (Group 2), Mean): 0.004% of Dose
Urinary Excretion, Amount Excreted (% of Dose), 8 hours (dermal 1.9 mg (Group 2), Mean): 0.17% of Dose
Faeces Excretion, Amount Excreted (% of Dose), 8 hours [1]: 0.004% of Dose (2×) and 0.000% of Dose (2×) and 0.001% of Dose (2×) and 0.014% of Dose and 0.003% of Dose
Urinary Excretion, Amount Excreted (% of Dose), 8 hours [1]: 0.15% of Dose and 0.02% of Dose and 0.05% of Dose and 0.08% of Dose (2×) and 0.22% of Dose and 0.14% of Dose and 0.09% of Dose and 0.83% of Dose and 0.07% of Dose
Urinary Excretion, Amount Excreted (% of Dose), 24 hours (dermal 1.9 mg (Group 2), collection 8-24 hours, Mean): 0.12% of Dose
Faeces Excretion, Amount Excreted (% of Dose), 24 hours [2]: 0.047% of Dose and 0.001% of Dose and 0.066% of Dose
Urinary Excretion, Amount Excreted (% of Dose), 24 hours [2]: 0.07% of Dose (3×) and 0.06% of Dose (2×) and 0.05% of Dose and 0.27% of Dose and 0.33% of Dose and 0.16% of Dose and 0.11% of Dose
Urinary Excretion, Amount Excreted (% of Dose), 48 hours (dermal 1.9 mg (Group 2), collection 24-48 hours, Mean): 0.06% of Dose
Faeces Excretion, Amount Excreted (% of Dose), 48 hours [3]: 0.68% of Dose and 0.30% of Dose and 0.58% of Dose and 0.60% of Dose and 0.53% of Dose and 0.52% of Dose
Urinary Excretion, Amount Excreted (% of Dose), 48 hours [3]: 0.06% of Dose (5×) and 0.02% of Dose (2×) and 0.14% of Dose and 0.12% of Dose and 0.03% of Dose
Faeces Excretion, Amount Excreted (% of Dose), 72 hours (dermal 1.9 mg (Group 2), Mean): 0.16% of Dose
Urinary Excretion, Amount Excreted (% of Dose), 72 hours (dermal 1.9 mg (Group 2), Mean): 0.04% of Dose
Faeces Excretion, Amount Excreted (% of Dose), 72 hours [1]: 0.33% of Dose and 0.19% of Dose and 0.15% of Dose and 0.10% of Dose and 0.46% of Dose and 0.17% of Dose and 0.05% of Dose and 0.02% of Dose (2×)
Urinary Excretion, Amount Excreted (% of Dose), 72 hours [1]: 0.06% of Dose (2×) and 0.02% of Dose (3×) and 0.03% of Dose (2×) and 0.01% of Dose (2×) and 0.13% of Dose
Faeces Excretion, Amount Excreted (% of Dose), 96 hours (dermal 1.9 mg (Group 2), Mean): 0.10% of Dose
Urinary Excretion, Amount Excreted (% of Dose), 96 hours (dermal 1.9 mg (Group 2), Mean): 0.03% of Dose
Faeces Excretion, Amount Excreted (% of Dose), 96 hours [1]: 0.13% of Dose and 0.05% of Dose (2×) and 0.09% of Dose and 0.18% of Dose
Urinary Excretion, Amount Excreted (% of Dose), 96 hours [1]: 0.05% of Dose and 0.03% of Dose (2×) and 0.02% of Dose and 0.01% of Dose
Faeces Excretion, Amount Excreted (% of Dose), 120 hours (dermal 1.9 mg (Group 2), Mean): 0.07% of Dose
Urinary Excretion, Amount Excreted (% of Dose), 120 hours (dermal 1.9 mg (Group 2), Mean): 0.02% of Dose
Faeces Excretion, Amount Excreted (% of Dose), 120 hours [1]: 0.13% of Dose and 0.05% of Dose (2×) and 0.02% of Dose and 0.10% of Dose
Urinary Excretion, Amount Excreted (% of Dose), 120 hours [1]: 0.06% of Dose and 0.02% of Dose (2×) and 0.01% of Dose (2×)
Faeces Excretion, Amount Excreted (% of Dose), 144 hours (dermal 1.9 mg (Group 2), Mean): 0.05% of Dose
Urinary Excretion, Amount Excreted (% of Dose), 144 hours (dermal 1.9 mg (Group 2), Mean): 0.01% of Dose
Faeces Excretion, Amount Excreted (% of Dose), 144 hours [1]: 0.07% of Dose and 0.04% of Dose (2×) and 0.03% of Dose and 0.09% of Dose
Urinary Excretion, Amount Excreted (% of Dose), 144 hours [1]: 0.02% of Dose and 0.01% of Dose (4×)
Faeces Excretion, Amount Excreted (% of Dose), 168 hours (dermal 1.9 mg (Group 2), Mean): 0.00% of Dose
Urinary Excretion, Amount Excreted (% of Dose), 168 hours (dermal 1.9 mg (Group 2), Mean): 0.00% of Dose
Faeces Excretion, Amount Excreted (% of Dose), 168 hours [1]: 0.01% of Dose (3×) and 0.00% of Dose (2×)
Urinary Excretion, Amount Excreted (% of Dose), 168 hours [1]: 0.01% of Dose and 0.00% of Dose (4×)
Faeces Excretion, Total Excretion (% of Dose), 0-72 hours [1]: 0.53% of Dose and 0.88% of Dose and 0.59% of Dose
Faeces Excretion, Total Excretion (% of Dose), 0-168 hours [1]: 0.66% of Dose
Urinary Excretion, Total Excretion (% of Dose), 0-72 hours [1]: 0.34% of Dose and 0.16% of Dose and 0.20% of Dose and 0.17% of Dose and 0.57% of Dose and 0.74% of Dose and 0.21% of Dose and 0.23% of Dose and 0.22% of Dose
Concentration in bone, Femur [4]: 0.060 μg 14C-alendronate/g bone
Concentration in bone, Tibia [4]: 0.039 μg 14C-alendronate/g bone
Concentration in bone, Femur [5]: 0.222 μg 14C-alendronate/g bone and 0.018 μg 14C-alendronate/g bone (2×) and 0.015 μg 14C-alendronate/g bone and 0.026 μg 14C-alendronate/g bone
Concentration in bone, Tibia [5]: 0.130 μg 14C-alendronate/g bone and 0.039 μg 14C-alendronate/g bone and 0.016 μg 14C-alendronate/g bone and 0.002 μg 14C-alendronate/g bone and 0.011 μg 14C-alendronate/g bone
Concentration in bone, Femur [6]: 0.029 μg 14C-alendronate/g bone
Concentration in bone, Tibia [6]: 0.017 μg 14C-alendronate/g bone
Concentration in bone, Femur [7]: 0.022 μg 14C-alendronate/g bone and 0.016 μg 14C-alendronate/g bone and 0.011 μg 14C-alendronate/g bone and 0.069 μg 14C-alendronate/g bone
Concentration in bone, Tibia [7]: 0.012 μg 14C-alendronate/g bone and 0.007 μg 14C-alendronate/g bone and 0.031 μg 14C-alendronate/g bone
Recovery from Treated Skin, % of Dose (necropsy Day 4, Mean): 0.35%
Recovery from Treated Skin, % of Dose (necropsy Day 4, individual animals): 0.35% (2×) and 0.30% and 0.44% and 0.33%
Recovery from Treated Skin, % of Dose (necropsy Day 8, Mean): 0.28%
